Literature values in patent US10597401B2, “Methods and intermediates for the preparation of omacetaxine and cephalotaxine derivatives thereof” (ALBANY MOLECULAR RESEARCH, INC., priority 2015, dated 2020).

Details: background statement, no test described

In the case of `COC1=C[C@]23CCCN2CCc2cc4c(cc2[C@@H]3[C@@H]1O)OCO4` [cephalotaxine], the biological activity is listed as “biologically inactive”.
